Each structure is given as a SMILES string. pIC50: −log10 of the molar value.

The term pIC50 denotes the negative decadic logarithm of the IC50, by convention in mol/L. Read a high pIC50 as a small IC50.

For this test, the target named is human A2A receptor (A2AR) (Homo sapiens, UniProt P29274). Nature of the test: Luciferase reporter assay (HEK293-A2AR-luc2p/CRE/Hygro cells, 3 nM CGS21680). Type of test: cell-based. To be noted: 3 nM CGS21680, 5 h incubation. The procedure, abridged: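 HEK293 cells stably expressing A2AR with a CRE-luc2P reporter were seeded in 1% FBS with 1 U/mL adenosine deaminase. After 18 h, cells got 3 nM CGS21680 plus antagonist at 0.1–10000 nM for 5 h, followed by a luciferase readout. IC50 is relative to the 3 nM CGS21680 signal, set as 100%.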
Chain of human A2A receptor (A2AR) (P29274 whole entry): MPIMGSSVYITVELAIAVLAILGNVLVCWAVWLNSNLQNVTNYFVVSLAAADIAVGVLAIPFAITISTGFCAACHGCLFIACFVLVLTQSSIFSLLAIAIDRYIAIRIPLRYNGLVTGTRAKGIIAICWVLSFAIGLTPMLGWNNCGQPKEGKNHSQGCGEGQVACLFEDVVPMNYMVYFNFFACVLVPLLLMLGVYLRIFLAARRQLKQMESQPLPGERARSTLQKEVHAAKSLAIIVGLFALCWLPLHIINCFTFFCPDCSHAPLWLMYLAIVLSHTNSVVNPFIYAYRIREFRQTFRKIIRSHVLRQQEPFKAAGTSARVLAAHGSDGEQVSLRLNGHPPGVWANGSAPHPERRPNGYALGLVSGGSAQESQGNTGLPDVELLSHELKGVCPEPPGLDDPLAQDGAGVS
In general terms: Reporter assays use an easily measured gene product as a stand-in for the process of interest.
`Nc1nc2c(cnn2C(C(=O)N2CCc3cc(F)ccc3C2)c2ccccc2)c2nc(-c3ccco3)nn12` (stereo not drawn) [Compound B7, 2-(5-amino-2-(furan-2-yl)-7H-pyrazolo[4,3-e][1,2,4]triazolo[1,5-c]pyrimidin-7-yl)-1-(6-fluoro-3,4-dihydroisoquinolin-2(1H)-yl)-2-phenylethan-1-one] showed a pIC50 of 8.70. With `Nc1nc2c(cnn2C(C(=O)N2CCc3ccncc3C2)c2ccccc2)c2nc(-c3ccco3)nn12` (stereo not drawn) [Compound B8, 2-(5-amino-2-(furan-2-yl)-7H-pyrazolo[4,3-e][1,2,4]triazolo[1,5-c]pyrimidin-7-yl)-1-(3,4-dihydro-2,7-naphthyridin-2(1H)-yl)-2-phenylethan-1-one] the figure was 8.40; with `Nc1nc2c(cnn2C(C(=O)N2CCc3cccnc3C2)c2ccccc2)c2nc(-c3ccco3)nn12` (stereo not drawn) [Compound B9, 2-(5-amino-2-(furan-2-yl)-7H-pyrazolo[4,3-e][1,2,4]triazolo[1,5-c]pyrimidin-7-yl)-1-(5,8-dihydro-1,7-naphthyridin-7(6H)-yl)-2-phenylethan-1-one], 8.47. As for `Nc1nc2c(cnn2C(C(=O)N2CCc3cccc(F)c3C2)c2ccccc2)c2nc(-c3ccco3)nn12` (stereo not drawn) [Compound B10, 2-(5-amino-2-(furan-2-yl)-7H-pyrazolo[4,3-e][1,2,4]triazolo[1,5-c]pyrimidin-7-yl)-1-(8-fluoro-3,4-dihydroisoquinolin-2(1H)-yl)-2-phenylethan-1-one], the figure is 9.10; as for `Nc1nc2c(cnn2C(C(=O)N2CCc3ccc(F)cc3C2)c2ccccc2)c2nc(-c3ccco3)nn12` (stereo not drawn) [Compound B11, 2-(5-amino-2-(furan-2-yl)-7H-pyrazolo[4,3-e][1,2,4]triazolo[1,5-c]pyrimidin-7-yl)-1-(7-fluoro-3,4-dihydroisoquinolin-2(1H)-yl)-2-phenylethan-1-one], 8.66. As for `Nc1nc2c(cnn2C(C(=O)N2CCc3c(F)cccc3C2)c2ccccc2)c2nc(-c3ccco3)nn12` (stereo not drawn) [Compound B12, 2-(5-amino-2-(furan-2-yl)-7H-pyrazolo[4,3-e][1,2,4]triazolo[1,5-c]pyrimidin-7-yl)-1-(5-fluoro-3,4-dihydroisoquinolin-2(1H)-yl)-2-phenylethan-1-one], the figure is 8.60.

For the compound `Nc1nc2c(cnn2C(C(=O)N2CCc3ncccc3C2)c2ccccc2)c2nc(-c3ccco3)nn12` (stereo not drawn) [Compound B13, 2-(5-amino-2-(furan-2-yl)-7H-pyrazolo[4,3-e][1,2,4]triazolo[1,5-c]pyrimidin-7-yl)-1-(7,8-dihydro-1,6-naphthyridin-6(5H)-yl)-2-phenylethan-1-one], the pIC50 is 8.55. In turn, `COCCOc1ccc2c(c1)CN(C(=O)C(c1ccccc1)n1ncc3c1nc(N)n1nc(-c4ccco4)nc31)CC2` (stereo not drawn) [Compound B14, 2-(5-amino-2-(furan-2-yl)-7H-pyrazolo[4,3-e][1,2,4]triazolo[1,5-c]pyrimidin-7-yl)-1-(7-(2-methoxyethoxy)-3,4-dihydroisoquinolin-2(1H)-yl)-2-phenylethan-1-one] gave a pIC50 of 8.24. With `COCCOc1ccc2c(c1)CCN(C(=O)C(c1ccccc1)n1ncc3c1nc(N)n1nc(-c4ccco4)nc31)C2` (stereo not drawn) [Compound B15, 2-(5-amino-2-(furan-2-yl)-7H-pyrazolo[4,3-e][1,2,4]triazolo[1,5-c]pyrimidin-7-yl)-1-(6-(2-methoxyethoxy)-3,4-dihydroisoquinolin-2(1H)-yl)-2-phenylethan-1-one] the figure was 8.66; with `COCCOc1cccc2c1CN(C(=O)C(c1ccccc1)n1ncc3c1nc(N)n1nc(-c4ccco4)nc31)CC2` (stereo not drawn) [Compound B16, 2-(5-amino-2-(furan-2-yl)-7H-pyrazolo[4,3-e][1,2,4]triazolo[1,5-c]pyrimidin-7-yl)-1-(8-(2-methoxyethoxy)-3,4-dihydroisoquinolin-2(1H)-yl)-2-phenylethan-1-one], 8.25. As for `Cc1ccc2c(c1)CN(C(=O)C(c1ccccc1)n1ncc3c1nc(N)n1nc(-c4ccco4)nc31)CC2` (stereo not drawn) [Compound B17, 2-(5-amino-2-(furan-2-yl)-7H-pyrazolo[4,3-e][1,2,4]triazolo[1,5-c]pyrimidin-7-yl)-1-(7-methyl-3,4-dihydroisoquinolin-2(1H)-yl)-2-phenylethan-1-one], the figure is 8.89; as for `CC(C(=O)N1CCc2ccccc2C1)(c1ccccc1)n1ncc2c1nc(N)n1nc(-c3ccco3)nc21` (stereo not drawn) [Compound B18, 2-(5-amino-2-(furan-2-yl)-7H-pyrazolo[4,3-e][1,2,4]triazolo[1,5-c]pyrimidin-7-yl)-1-(3,4-dihydroisoquinolin-2(1H)-yl)-2-phenylpropan-1-one], 6.95. As for `CC(C(=O)N1CCc2cc(F)ccc2C1)(c1ccccc1)n1ncc2c1nc(N)n1nc(-c3ccco3)nc21` (stereo not drawn) [Compound B19, 2-(5-amino-2-(furan-2-yl)-7H-pyrazolo[4,3-e][1,2,4]triazolo[1,5-c]pyrimidin-7-yl)-1-(6-fluoro-3,4-dihydroisoquinolin-2(1H)-yl)-2-phenylpropan-1-one], the figure is 6.95; as for `CN(C)C(=O)C(C)(c1ccccc1)n1ncc2c1nc(N)n1nc(-c3ccco3)nc21` (stereo not drawn) [Compound B20, 2-(5-amino-2-(furan-2-yl)-7H-pyrazolo[4,3-e][1,2,4]triazolo[1,5-c]pyrimidin-7-yl)-N,N-dimethyl-2-phenylpropanamide], 7.70; as for `CC(C(=O)N1CCNCC1)(c1ccccc1)n1ncc2c1nc(N)n1nc(-c3ccco3)nc21` (stereo not drawn) [Compound B21, 2-(5-amino-2-(furan-2-yl)-7H-pyrazolo[4,3-e][1,2,4]triazolo[1,5-c]pyrimidin-7-yl)-2-phenyl-1-(piperazin-1-yl)propan-1-one], 7.01. `CC(C(=O)N1CC2(COC2)C1)(c1ccccc1)n1ncc2c1nc(N)n1nc(-c3ccco3)nc21` (stereo not drawn) [Compound B22, 2-(5-amino-2-(furan-2-yl)-7H-pyrazolo[4,3-e][1,2,4]triazolo[1,5-c]pyrimidin-7-yl)-2-phenyl-1-(2-oxa-6-azaspiro[3.3]heptan-6-yl)propan-1-one]: the pIC50 is 7.80. The compound `CC(C(=O)N1CCCC1)(c1ccccc1)n1ncc2c1nc(N)n1nc(-c3ccco3)nc21` (stereo not drawn) [Compound B23, 2-(5-amino-2-(furan-2-yl)-7H-pyrazolo[4,3-e][1,2,4]triazolo[1,5-c]pyrimidin-7-yl)-2-phenyl-1-(pyrrolidin-1-yl)propan-1-one] had a pIC50 of 7.60. With `CC(C(=O)N1CCC1)(c1ccccc1)n1ncc2c1nc(N)n1nc(-c3ccco3)nc21` (stereo not drawn) [Compound B24, 2-(5-amino-2-(furan-2-yl)-7H-pyrazolo[4,3-e][1,2,4]triazolo[1,5-c]pyrimidin-7-yl)-1-(azetidin-1-yl)-2-phenylpropan-1-one] the figure was 7.92; with `CC1(O)CCN(C(=O)C(C)(c2ccccc2)n2ncc3c2nc(N)n2nc(-c4ccco4)nc32)CC1` (stereo not drawn) [Compound B25, 2-(5-amino-2-(furan-2-yl)-7H-pyrazolo[4,3-e][1,2,4]triazolo[1,5-c]pyrimidin-7-yl)-1-(4-hydroxy-4-methylpiperidin-1-yl)-2-phenylpropan-1-one], 7.63; with `CC(C(=O)N1CC2(CCOCC2)C1)(c1ccccc1)n1ncc2c1nc(N)n1nc(-c3ccco3)nc21` (stereo not drawn) [Compound B26, 2-(5-amino-2-(furan-2-yl)-7H-pyrazolo[4,3-e][1,2,4]triazolo[1,5-c]pyrimidin-7-yl)-2-phenyl-1-(7-oxa-2-azaspiro[3.5]nonan-2-yl)propan-1-one], 7.81. As for `CN1CCN(C(=O)C(C)(c2ccccc2)n2ncc3c2nc(N)n2nc(-c4ccco4)nc32)CC1` (stereo not drawn) [Compound B27, 2-(5-amino-2-(furan-2-yl)-7H-pyrazolo[4,3-e][1,2,4]triazolo[1,5-c]pyrimidin-7-yl)-1-(4-methylpiperazin-1-yl)-2-phenylpropan-1-one], the figure is 7.52; as for `CO[C@H]1CCCN(C(=O)C(C)(c2ccccc2)n2ncc3c2nc(N)n2nc(-c4ccco4)nc32)C1` (stereo partly drawn) [Compound B28, 2-(5-amino-2-(furan-2-yl)-7H-pyrazolo[4,3-e][1,2,4]triazolo[1,5-c]pyrimidin-7-yl)-1-((S)-3-methoxypiperidin-1-yl)-2-phenylpropan-1-one], 7.47; as for `CO[C@H]1CCN(C(=O)C(C)(c2ccccc2)n2ncc3c2nc(N)n2nc(-c4ccco4)nc32)C1` (stereo partly drawn) [Compound B29, 2-(5-amino-2-(furan-2-yl)-7H-pyrazolo[4,3-e][1,2,4]triazolo[1,5-c]pyrimidin-7-yl)-1-((S)-3-methoxypyrrolidin-1-yl)-2-phenylpropan-1-one], 7.12. With `CO[C@@H]1CCN(C(=O)C(C)(c2ccccc2)n2ncc3c2nc(N)n2nc(-c4ccco4)nc32)C1` (stereo partly drawn) [Compound B30, 2-(5-amino-2-(furan-2-yl)-7H-pyrazolo[4,3-e][1,2,4]triazolo[1,5-c]pyrimidin-7-yl)-1-((R)-3-methoxypyrrolidin-1-yl)-2-phenylpropan-1-one] the figure was 7.01. For the compound `CO[C@@H]1CCCN(C(=O)C(C)(c2ccccc2)n2ncc3c2nc(N)n2nc(-c4ccco4)nc32)C1` (stereo partly drawn) [Compound B31, 2-(5-amino-2-(furan-2-yl)-7H-pyrazolo[4,3-e][1,2,4]triazolo[1,5-c]pyrimidin-7-yl)-1-((R)-3-methoxypiperidin-1-yl)-2-phenylpropan-1-one], the pIC50 is 7.34. As for `CC(C(=O)N1CCC[C@@H](O)C1)(c1ccccc1)n1ncc2c1nc(N)n1nc(-c3ccco3)nc21` (stereo partly drawn) [Compound B32, 2-(5-amino-2-(furan-2-yl)-7H-pyrazolo[4,3-e][1,2,4]triazolo[1,5-c]pyrimidin-7-yl)-1-((R)-3-hydroxypiperidin-1-yl)-2-phenylpropan-1-one], the figure is 6.95. As for `COC(=O)C1CC2(CCN(C(=O)C(C)(c3ccccc3)n3ncc4c3nc(N)n3nc(-c5ccco5)nc43)CC2)C1` (stereo not drawn) [Compound B33, methyl 7-(2-(5-amino-2-(furan-2-yl)-7H-pyrazolo[4,3-e][1,2,4]triazolo[1,5-c]pyrimidin-7-yl)-2-phenylpropanoyl)-7-azaspiro[3.5]nonane-2-carboxylate], the figure is 7.78.

The values above are taken from patent publication US20210300936A1, “PYRAZOLOTRIAZOLOPYRIMIDINE DERIVATIVES AS A2A RECEPTOR ANTAGONIST” (BEIGENE, LTD., priority 2018, published 2021).
